# Source: ChEMBL document CHEMBL5030556, “Selection and Identification of Novel Antibacterial Agents against Planktonic Growth and Biofilm Formation of Enterococcus faecalis” (J Med Chem, 2021)
# Calls of active or inactive are those of the source. No cut-off for these calls is given here.
# Assays:
# Enterococcus faecalis [1] = test: Antimicrobial activity against Enterococcus faecalis OG1RF assessed as reduction in visible bacterial growth incubated for 16 to 20 hrs by microdilution broth assay; format: functional; conditions: time 16-20 hrs
# [2] = Hemolytic activity against human erythrocytes at 50 uM incubated for 1 hr at 570 nm by spectrophotometry; format: ADME, tissue-based, Erythrocyte; conditions: read-out: Activity
# Enterococcus faecalis [3] = test: Antibiofilm activity against Enterococcus faecalis FB-1 assessed as inhibition of biofilm maturation measured after 24 hr; format: functional, organism-based
# Enterococcus faecalis [4] = test: Bactericidal activity against Enterococcus faecalis OG1RF assessed as reduction in bacterial colonies incubated for 16 to 20 hrs by microdilution broth analysis; format: functional; conditions: time 16-20 hrs, read-out: MBC99.9
# Enterococcus faecalis [5] = test: Antibiofilm activity against Enterococcus faecalis FB-1 assessed as eradication of mature biofilm by semiquantitative microtiter assay; format: functional, organism-based
# Enterococcus faecalis [6] = test: Bacteriostatic activity against planktonic cells of Enterococcus faecalis OG1RF measured by microdilution broth assay; format: functional, organism-based
# [7] = Hemolytic activity against human erythrocytes at 200 uM incubated for 1 hr at 570 nm by spectrophotometry; format: ADME, tissue-based, Erythrocyte; conditions: read-out: Activity
# [8] = Cytotoxicity against african green monkey Vero cells assessed as inhibition of cell growth by MTT assay; format: cell-based; conditions: chlorocebus sabaeus
# Enterococcus faecalis [9] = test: Inhibition of biofilm formation of Enterococcus faecalis FB-1 assessed as inhibitory rate of formation at 100 uM for 24 hrs measured at 570 nm by crystal violet staining based spectrophotometry; format: functional
# Enterococcus faecalis [10] = test: Antibiofilm activity against Enterococcus faecalis FB-1 assessed as inhibition of biofilm maturation at 1.56 uM measured after 24 hr; format: functional, organism-based
# [11] = Inhibition of Enterococcus faecalis OG1RF YycG autophosphorylation by Kinase-Glo luminescent kinase assay
# Enterococcus faecalis [12] = test: Antibiofilm activity against Enterococcus faecalis assessed as reduction in amount of viable biofilm-embedded bacterial cells at 50 uM measured by YTO 9/PI staining followed by confocal laser scanning microscopy; format: functional
# Enterococcus faecalis [13] = test: Antibacterial activity against Enterococcus faecalis FB-1 assessed as reduction in visible bacterial growth incubated for 16 to 20 hrs by microdilution broth assay; format: functional; conditions: time 16-20 hrs
# Staphylococcus aureus [14] = test: Antibacterial activity against Staphylococcus aureus ATCC 29213 assessed as reduction in visible bacterial growth incubated for 16 to 20 hrs by microdilution broth assay; format: functional; conditions: time 16-20 hrs
# [15] = tested on: Staphylococcus epidermidis; test: Antibacterial activity against Staphylococcus epidermidis ATCC 12228 assessed as reduction in visible bacterial growth incubated for 16 to 20 hrs by microdilution broth assay; format: functional; conditions: time 16-20 hrs
# [16] = tested on: Staphylococcus epidermidis; test: Antibacterial activity against Staphylococcus epidermidis ATCC 35984 assessed as reduction in visible bacterial growth incubated for 16 to 20 hrs by microdilution broth assay; format: functional; conditions: time 16-20 hrs
# Enterococcus faecalis [17] = test: Antibacterial activity against Enterococcus faecalis ATCC 29212 assessed as reduction in visible bacterial growth incubated for 16 to 20 hrs by microdilution broth assay; format: functional; conditions: time 16-20 hrs
# Streptococcus agalactiae = test: Antibacterial activity against Streptococcus agalactiae NSGC64 assessed as reduction in visible bacterial growth incubated for 16 to 20 hrs by microdilution broth assay; format: functional; conditions: time 16-20 hrs
# Enterococcus faecalis [18] = test: Antibacterial activity against Enterococcus faecalis OG1RF assessed as reduction in visible bacterial growth incubated for 16 to 20 hrs by microdilution broth assay; format: functional; conditions: time 16-20 hrs
# Enterococcus faecium = test: Antibacterial activity against Enterococcus faecium EF16M64 assessed as reduction in visible bacterial growth incubated for 16 to 20 hrs by microdilution broth assay; format: functional; conditions: time 16-20 hrs
# Staphylococcus aureus [19] = test: Antibacterial activity against Staphylococcus aureus ATCC 35556 assessed as reduction in visible bacterial growth incubated for 16 to 20 hrs by microdilution broth assay; format: functional; conditions: time 16-20 hrs
# Escherichia coli = test: Antibacterial activity against Escherichia coli […] assessed as reduction in visible bacterial growth incubated for 16 to 20 hrs by microdilution broth assay; format: functional; conditions: time 16-20 hrs
# Enterococcus faecalis [20] = test: Antibiofilm activity against Enterococcus faecalis FB-1 assessed as inhibition of biofilm infection at 25 uM by fluid shear system; format: functional, organism-based
# Enterococcus faecalis [21] = test: Antibiofilm activity against Enterococcus faecalis assessed as fold reduction in yycF gene expression at 25 uM incubated for 6 hrs by qRT-PCR analysis; format: functional
# Enterococcus faecalis [22] = test: Bactericidal activity against Enterococcus faecalis OG1RF assessed as reductions in colony forming unit in presence of vancomycin after 24 hrs by time-killing assay; format: functional, organism-based
# Enterococcus faecalis [23] = test: Bactericidal activity against Enterococcus faecalis OG1RF assessed as reductions in colony forming unit in presence of ampicillin within 3 hrs by time-killing assay; format: functional, organism-based
# Enterococcus faecalis [24] = test: Antibiofilm activity against Enterococcus faecalis assessed as fold reduction in fsrB gene expression at 25 uM incubated for 6 hrs by qRT-PCR analysis; format: functional
# Enterococcus faecalis [25] = test: Bactericidal activity against Enterococcus faecalis OG1RF assessed as reductions in colony forming unit in presence of vancomycin within 3 hrs by time-killing assay; format: functional, organism-based
# Enterococcus faecalis [26] = test: Antibacterial activity against clinical strain vancomycin-resistant Enterococcus faecalis assessed as inhibition of bacterial growth; format: functional
# Enterococcus faecalis [27] = test: Antibiofilm activity against Enterococcus faecalis assessed as fold reduction in yycG gene expression at 25 uM incubated for 6 hrs by qRT-PCR analysis; format: functional
# Enterococcus faecalis [28] = test: Antibacterial activity against ATc induced Enterococcus faecalis OG1RF-asryycG silencing strain assessed as fold reduction in MIC relative to wild type; format: functional
# Enterococcus faecalis [29] = test: Bactericidal activity against Enterococcus faecalis OG1RF assessed as reductions in colony forming unit in presence of linezolid within 3 hrs by time-killing assay; format: functional, organism-based
# Enterococcus faecalis [30] = test: Bactericidal activity against Enterococcus faecalis OG1RF assessed as reductions in colony forming unit in presence of ampicillin after 24 hrs by time-killing assay; format: functional, organism-based
# Enterococcus faecalis [31] = test: Antibiofilm activity against Enterococcus faecalis assessed as fold reduction in epbOX gene expression at 25 uM incubated for 6 hrs by qRT-PCR analysis; format: functional
# Enterococcus faecalis [32] = test: Antibacterial activity against clinical strain Enterococcus faecalis assessed as inhibition of bacterial growth; format: functional
# Enterococcus faecalis [33] = test: Antibiofilm activity against Enterococcus faecalis assessed as fold reduction in […] gene expression at 25 uM incubated for 6 hrs by qRT-PCR analysis; format: functional
# Enterococcus faecalis [34] = test: Antibiofilm activity against Enterococcus faecalis assessed as fold reduction in gelE gene expression at 25 uM incubated for 6 hrs by qRT-PCR analysis; format: functional
# Enterococcus faecalis [35] = test: Antibacterial activity against clinical strain linozelid-resistant Enterococcus faecalis assessed as inhibition of bacterial growth; format: functional
# Enterococcus faecalis [36] = test: Binding affinity to Enterococcus faecalis FB-1 YycG assessed as slow association and rapid dissociation measured by Octet RED96 response assay
# Enterococcus faecalis [37] = test: Antibiofilm activity against Enterococcus faecalis assessed as inhibition of biofilm at 1/2 times of MIC incubated for 24 hrs; format: functional; set-up: scale not given: the % may be the effect or the level left
# Enterococcus faecalis [38] = test: Effect on initial adhesion capacity of Enterococcus faecalis assessed as attached cells at 25 uM for 6 hrs by crystal violet staining based microscopic assay (reference value: 0.412); format: functional
# Enterococcus faecalis [39] = test: Antibiofilm activity against Enterococcus faecalis assessed as fold reduction in sprE gene expression at 25 uM incubated for 6 hrs by qRT-PCR analysis; format: functional
# Enterococcus faecalis [40] = test: Bactericidal activity against Enterococcus faecalis OG1RF assessed as reductions in colony forming unit in presence of linezolid after 24 hrs by time-killing assay; format: functional, organism-based
smiles,measurement,setting,value
O=C(C1=C(O)C(=O)N(c2nnc(SCc3ccc(F)cc3)s2)C1c1cccc(O)c1)c1cc2ccccc2o1 (centres undefined),MIC,Enterococcus faecalis [1],> 200 µM
same,"hemolysis at 1 h, 50 µM",[2],1.94%
same,Activity,Enterococcus faecalis [3],Dose-Dependent Effect
same,MBC,Enterococcus faecalis [4],> 200 µM
same,Activity,Enterococcus faecalis [5],inactive
same,Activity,Enterococcus faecalis [6],inactive
same,"hemolysis at 1 h, 200 µM",[7],3.83%
same,CC50,[8],> 200 µM
same,inhibition at 100 µM,Enterococcus faecalis [9],75.5%
same,Activity,Enterococcus faecalis [10],Active
same,IC50,[11],> 200 µM
O=C(C1=C(O)C(=O)N(c2nnc(SCc3ccc(Cl)cc3)s2)C1c1cccc(O)c1)c1cc2ccccc2o1 (centres undefined),MIC,Enterococcus faecalis [1],> 200 µM
same,"hemolysis at 1 h, 50 µM",[2],6.26%
same,Activity,Enterococcus faecalis [3],Dose-Dependent Effect
same,MBC,Enterococcus faecalis [4],> 200 µM
same,Activity,Enterococcus faecalis [6],inactive
same,"hemolysis at 1 h, 200 µM",[7],7.81%
same,CC50,[8],> 200 µM
same,Activity,Enterococcus faecalis [12],27.79%
same,inhibition at 100 µM,Enterococcus faecalis [9],72%
same,IC50,[11],8.3 µM
O=C(O)COc1ccc(/C=C2/SC(=O)N(Cc3ccc(F)cc3)C2=O)cc1Br,MIC,Enterococcus faecalis [13],> 200 µM
same,MIC,Staphylococcus aureus [14],> 200 µM
same,MIC,Enterococcus faecalis [1],> 200 µM
same,"hemolysis at 1 h, 50 µM",[2],8.36%
same,MIC,[15],> 200 µM
same,MIC,[16],> 200 µM
same,MIC,Enterococcus faecalis [17],> 200 µM
same,Activity,Enterococcus faecalis [3],Dose-Dependent Effect
same,MBC,Enterococcus faecalis [4],> 200 µM
same,MIC,Streptococcus agalactiae,> 200 µM
same,MIC,Enterococcus faecalis [18],> 200 µM
same,MIC,Enterococcus faecium,> 200 µM
same,Activity,Enterococcus faecalis [5],inactive
same,Activity,Enterococcus faecalis [6],inactive
same,"hemolysis at 1 h, 200 µM",[7],22.7%
same,CC50,[8],> 200 µM
same,inhibition at 100 µM,Enterococcus faecalis [9],83.5%
same,MIC,Staphylococcus aureus [19],> 200 µM
same,MIC,Escherichia coli,> 200 µM
same,Activity,Enterococcus faecalis [20],Active
same,IC50,[11],27.4 µM
CCOC(=O)c1c(CN2CCN(C)CC2)n(-c2ccccc2)c2ccc(OS(=O)(=O)c3ccc(C)cc3)cc12,MIC,Enterococcus faecalis [13],50 µM
same,fold change (FC),Enterococcus faecalis [21],3
same,MIC,Staphylococcus aureus [14],12.5 µM
same,MIC,Enterococcus faecalis [1],25 µM
same,Activity,Enterococcus faecalis [22],Active
same,Activity,Enterococcus faecalis [23],Active
same,"hemolysis at 1 h, 50 µM",[2],24.1%
same,MIC,[15],12.5 µM
same,fold change (FC),Enterococcus faecalis [24],2
same,Activity,Enterococcus faecalis [25],Active
same,MIC,[16],12.5 µM
same,MIC50,Enterococcus faecalis [26],50 µM
same,MIC,Enterococcus faecalis [17],25 µM
same,Activity,Enterococcus faecalis [3],Dose-Dependent Effect
same,MBC,Enterococcus faecalis [4],100 µM
same,fold change (FC),Enterococcus faecalis [27],20
same,fold change (FC),Enterococcus faecalis [28],4
same,MIC,Streptococcus agalactiae,12.5 µM
same,Activity,Enterococcus faecalis [29],Active
same,Activity,Enterococcus faecalis [30],Active
same,MIC,Enterococcus faecalis [18],25 µM
same,fold change (FC),Enterococcus faecalis [31],2
same,MIC,Enterococcus faecium,25 µM
same,Activity,Enterococcus faecalis [5],inactive
same,MIC,Enterococcus faecalis [32],25 µM
same,"hemolysis at 1 h, 200 µM",[7],28.2%
same,fold change (FC),Enterococcus faecalis [33],2
same,CC50,[8],> 200 µM
same,Activity,Enterococcus faecalis [12],18.29%
same,inhibition at 100 µM,Enterococcus faecalis [9],96.2%
same,MIC,Staphylococcus aureus [19],12.5 µM
same,fold change (FC),Enterococcus faecalis [34],2
same,MIC90,Enterococcus faecalis [35],100 µM
same,Activity,Enterococcus faecalis [36],Active
same,Activity,Enterococcus faecalis [37],74.8%
same,OD,Enterococcus faecalis [38],0.186
same,MIC,Escherichia coli,> 200 µM
same,Activity,Enterococcus faecalis [20],Active
same,fold change (FC),Enterococcus faecalis [39],2
same,Activity,Enterococcus faecalis [40],Active
same,IC50,[11],42.9 µM
Cc1ccc(CSc2nnc(N3C(=O)C(O)=C(C(=O)c4cc5ccccc5o4)C3c3cccc(O)c3)s2)cc1 (centres undefined),MIC,Enterococcus faecalis [1],> 200 µM
same,"hemolysis at 1 h, 50 µM",[2],4.7%
same,Activity,Enterococcus faecalis [3],Dose-Dependent Effect
same,MBC,Enterococcus faecalis [4],> 200 µM
same,Activity,Enterococcus faecalis [6],inactive
same,"hemolysis at 1 h, 200 µM",[7],6.32%
same,CC50,[8],> 200 µM
same,Activity,Enterococcus faecalis [12],46.93%
same,inhibition at 100 µM,Enterococcus faecalis [9],77.7%
same,Activity,Enterococcus faecalis [10],Active
same,IC50,[11],1.5 µM
